For two molecules, IC50 results are on record in BindingDB's records for doi:10.1021/jm00207a020 (1978).

The target in this experiment is Adenylate cyclase type 1 (Rattus norvegicus, UniProt D4A3N4). Nature of the experiment: Inhibition of dopamine-sensitive rat brain adenylyl cyclase activity assessed as cAMP level. For orientation: Cyclic AMP is a second messenger, typically raised through Gs and lowered through Gi signalling.

Structures are written as SMILES.

Adenylate cyclase type 1, sequence (D4A3N4 whole entry): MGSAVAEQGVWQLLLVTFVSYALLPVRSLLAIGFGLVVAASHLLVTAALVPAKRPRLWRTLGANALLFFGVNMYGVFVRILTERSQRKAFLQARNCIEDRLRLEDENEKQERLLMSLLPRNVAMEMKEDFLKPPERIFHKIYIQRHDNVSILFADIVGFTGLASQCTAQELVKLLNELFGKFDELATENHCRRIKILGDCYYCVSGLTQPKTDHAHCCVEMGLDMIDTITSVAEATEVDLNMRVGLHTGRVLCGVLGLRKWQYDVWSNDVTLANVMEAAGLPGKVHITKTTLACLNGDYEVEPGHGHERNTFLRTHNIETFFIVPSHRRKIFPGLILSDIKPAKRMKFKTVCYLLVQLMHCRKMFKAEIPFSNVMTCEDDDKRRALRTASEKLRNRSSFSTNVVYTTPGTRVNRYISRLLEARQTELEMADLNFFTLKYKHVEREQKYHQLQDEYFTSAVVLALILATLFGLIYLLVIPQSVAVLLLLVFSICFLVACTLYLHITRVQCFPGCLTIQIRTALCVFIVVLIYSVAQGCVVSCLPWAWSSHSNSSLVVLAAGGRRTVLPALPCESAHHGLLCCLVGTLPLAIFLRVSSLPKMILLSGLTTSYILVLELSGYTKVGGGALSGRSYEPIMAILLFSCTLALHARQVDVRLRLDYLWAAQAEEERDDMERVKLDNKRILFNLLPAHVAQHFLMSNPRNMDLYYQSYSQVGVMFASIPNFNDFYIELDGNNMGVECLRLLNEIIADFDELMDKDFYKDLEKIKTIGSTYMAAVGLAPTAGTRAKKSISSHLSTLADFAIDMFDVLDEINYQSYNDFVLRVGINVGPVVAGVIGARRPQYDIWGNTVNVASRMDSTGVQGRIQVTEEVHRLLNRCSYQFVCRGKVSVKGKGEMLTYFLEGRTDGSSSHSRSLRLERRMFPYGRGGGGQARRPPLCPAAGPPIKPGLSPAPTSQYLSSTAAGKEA

A word on the IC50: it is the concentration that gives 50% inhibition. Regarding `c1ccc(C2=Nc3ccccc3N=C(N3CCC(c4ccccc4)CC3)C2)cc1`, the half-inhibitory concentration (IC50) is 4.5 nM.

For `CN1CCN(C2=Nc3cc(Cl)ccc3Nc3ccccc32)CC1` [8-Chloro-11-(4-methyl-piperazin-1-yl)-5H-dibenzo[b,e][1,4]diazepine(Clopazine)], the 50% inhibitory concentration (IC50) is 1.4 nM.
